Legend:
in vivo = details: male, NodCB17 SCID, mouse, iv, 0.061 nmol, total radioactivity
Description: Searching for a preliminary proof of concept of the intended pre-targeting approach, we synthesized a clickable TCO-containing bombesin antagonist (TCO-PEG4-AR) based on the potent GRPr antagonist AR reported in the literature, as described in the Supplementary Material ([29]). We hypothesized that the antagonist, when bound to the surface of human PC3 cells, would be available for the in vivo click reaction with the Tz-containing radiocomplex. As a control, the biodistribution data of the preformed [^90Y]Y-DOTA-Tz-TCO-PEG4-AR in PC3-xenografts bearing mice at 15 min and 1 h p.i. are available in Supplementary Table 5. For the pre-targeting approach, the tumor-bearing mice were injected with 1 nmol of the clickable bombesin antagonist and, after 4 h, we injected the radiocomplex [^90Y]Y-DOTA-Tz. […] In parallel, pre-targeting experiments based on ex-vivo biodistribution studies were performed in the same way for the congener [^111In]In-DOTA-Tz, and using the same animal model. […]
from whole animal body. Blood samples were taken by cardiac puncture at sacrifice. Tissue samples of the main organs were then dissected, weighted and counted in a gamma counter (Berthold).
Biodistribution results were expressed as percentage of the injected dose per gram tissue (%I.D./g) in the form of an average with standard deviation (%ID/g; mean ± standard deviation (SD).
Biodistribution in PC3 bearing mice
Male, 5-6 weeks old NodCB17 SCID mice were obtained from Janvier Lab., France. Mice were housed under pathogen-free conditions with food and water ad libitum, and a 12-12 hour light-dark cycle.
Veterinarian staff and investigators observed the mice daily to ensure animal welfare and determine if human endpoints (e.g., hunched and ruffled appearance, apathy, ulceration, severe weight loss, tumour burden) were reached. The mice were subcutaneously injected in the shoulder with 200 µL bolus containing a suspension of […] freshly harvested human prostatic cell line PC3 in Matrigel™ Basement Membrane Matrix (BD Sciences) under anaesthesia with 2% isoflurane. The animals were kept under pathogen-free condition and experiments were performed 2–3 weeks later when a tumour reached a volume of approximate 390 ± 190 mm3. Animals were allocated into treatment groups using a complete […]
The examination of physiological distribution for [90Y]Y-DOTA-Tz were carried out on 4 mice (n = 4). For the control bolus, 0.061 nmol, 0.1 mL, 7.5 µCi of [90Y]Y-DOTA-Tz was intravenously injected by tail vein. The examination of physiological distribution for [90Y]Y-DOTA-Tz-TCO-PEG4-AR were carried out on groups of 8 mice (n = 4). For the control bolus, 0.061 nmo l, 0.1 mL, 7.5 µCi of 90Y-DOTA-Tz TCO-PEG4-AR was intravenously injected by tail vein. At appropriate time points (15 min, 1h or 2h after-injection), the animals were euthanized, tissues of interest were dissected, weighted, and […]

[1] = Biodistribution of [111In]In-radiocomplexes in healthy mice; assay type: in vivo
Protocol: We performed a biodistribution study of the four [^111In]In-radiocomplexes in healthy mice to determine the clearance rate from systemic blood circulation and the tissue/organ distribution over time. […] The urinary tract was identified as the main excretory pathway since the highest % I.D./g values were found in the kidneys for all the radiocomplexes, associated to rapid radioactivity excretion both at 15 min and 1 h p.i. […] page 9: from whole animal body. Blood samples were taken by cardiac puncture at sacrifice. […] The animals were kept under […] volume of approximate 390 ± 190 mm3. […] […] carried out on groups of 8 mice (n = 4). […] The animals were weighed and dissected.

`CC(C)C[C@H](NC(=O)C[C@H](O)[C@H](CC(C)C)NC(=O)[C@H](Cc1c[nH]cn1)NC(=O)CNC(=O)[C@@H](NC(=O)[C@H](C)NC(=O)[C@H](Cc1c[nH]c2ccccc12)NC(=O)[C@H](CCC(N)=O)NC(=O)[C@@H](Cc1ccccc1)NC(=O)CCOCCOCCOCCOCCNC(=O)OC1CCCC2=CNN=C(c3ccc(CNC(=O)CN4CCN(CC(=O)O)CCN(CC(=O)O)CCN(CC(=O)O)CC4)cc3)C2CC1)C(C)C)C(N)=O` (stereo partly shown) [[90Y]Y-DOTA-Tz-TCO-PEG4-AR, metal not drawn] gave a tissue uptake at 0.25 h (in vivo; blood) of 14.9 ± 3.89 %ID/g, a tissue uptake at 1 h (in vivo; blood) of 2.65 ± 0.65 %ID/g and a tissue uptake at 0.25 h (in vivo; bone) of 3.15 ± 1.87 %ID/g. It also gave a tissue uptake at 1 h (in vivo; bone) of 0.7 ± 0.29 %ID/g, a tissue uptake at 0.25 h (in vivo; heart) of 3.55 ± 0.62 %ID/g and a tissue uptake at 1 h (in vivo; heart) of 0.61 ± 0.27 %ID/g. The tissue uptake at 0.25 h (in vivo; kidneys) was 20.5 ± 7.97 %ID/g, the tissue uptake at 1 h (in vivo; kidneys) was 2.94 ± 0.44 %ID/g and the tissue uptake at 0.25 h (in vivo; large intestine) was 3.98 ± 0.68 %ID/g. For the same molecule, the tissue uptake at 1 h (in vivo; large intestine) was 0.67 ± 0.19 %ID/g, the tissue uptake at 0.25 h (in vivo; liver) was 7.35 ± 3.27 %ID/g and the tissue uptake at 1 h (in vivo; liver) was 0.82 ± 0.1 %ID/g. For the same molecule, the tissue uptake at 0.25 h (in vivo; lung) was 7.48 ± 1.92 %ID/g, the tissue uptake at 1 h (in vivo; lung) was 1.57 ± 0.63 %ID/g and the tissue uptake at 0.25 h (in vivo; muscle) was 2.36 ± 0.33 %ID/g. For the same molecule, the tissue uptake at 1 h (in vivo; muscle) was 0.41 ± 0.12 %ID/g, the tissue uptake at 0.25 h (in vivo; pancreas) was 32 ± 3.86 %ID/g and the tissue uptake at 1 h (in vivo; pancreas) was 14 ± 1.99 %ID/g. For the same molecule, the tissue uptake at 0.25 h (in vivo; prostate) was 26.3 ± 18 %ID/g, the tissue uptake at 1 h (in vivo; prostate) was 3.48 ± 3.63 %ID/g and the tissue uptake at 0.25 h (in vivo; salivary gland) was 3.69 ± 1.39 %ID/g. The tissue uptake at 1 h (in vivo; salivary gland) was 0.6 ± 0.18 %ID/g, the tissue uptake at 0.25 h (in vivo; small intestine) was 2.74 ± 0.28 %ID/g and the tissue uptake at 1 h (in vivo; small intestine) was 0.99 ± 0.32 %ID/g. For the same molecule, the tissue uptake at 0.25 h (in vivo; spleen) was 4.03 ± 2.21 %ID/g, the tissue uptake at 1 h (in vivo; spleen) was 1.08 ± 0.39 %ID/g and the tissue uptake at 0.25 h (in vivo; stomach) was 4.72 ± 0.38 %ID/g. The tissue uptake at 1 h (in vivo; stomach) was 1.95 ± 0.39 %ID/g, the tissue uptake at 0.25 h (in vivo; thyroid) was 6.57 ± 3.95 %ID/g and the tissue uptake at 1 h (in vivo; thyroid) was 0.99 ± 0.5 %ID/g. The tissue uptake at 0.25 h (in vivo; tumour) was 6.32 ± 1.28 %ID/g, the tissue uptake at 1 h (in vivo; tumour) was 2.26 ± 0.93 %ID/g and the “radiochemical purity after incubation in HS” value (human serum, 37 °C, 6 days, ITLC (citrate buffer pH 5.5, 0.1 M)) was “above 99%”. The “stability of the preparation after radiolabelling” value (room temperature, HPLC) was “stable up to 24 hours”.

In the case of `O=C([O-])CN1CCN(CC(=O)[O-])CCN(C(CCC(=O)NCCOCCOCCOCCOCCOCCOCCOCCOCCOCCOCCOCCNC(=O)CCCC(=O)NCc2ccc(-c3nncnn3)cc2)C(=O)[O-])CCN(CC(=O)[O-])CC1.[111In+3]` (stereo not shown) [[111In]In-DOTAGA-PEG-Tz], the “Biodistribution: Blood” value ([1]; 15 min p.i.) is reported as 3.7 ± 0.6 % I.D./g, the “Biodistribution: Bone” value ([1]; 15 min p.i.) is reported as 0.8 ± 0.2 % I.D./g and the “Biodistribution: Heart” value ([1]; 15 min p.i.) is reported as 1.2 ± 0.6 % I.D./g. The “Biodistribution: Intestine” value ([1]; 15 min p.i.) was 0.31 ± 0.05 % I.D./g, the “Biodistribution: Kidney” value ([1]; 15 min p.i.) was 4.8 ± 0.7 % I.D./g and the “Biodistribution: Liver” value ([1]; 15 min p.i.) was 0.8 ± 0.1 % I.D./g. The “Biodistribution: Lung” value ([1]; 15 min p.i.) was 1.4 ± 0.2 % I.D./g, the “Biodistribution: Muscle” value ([1]; 15 min p.i.) was 0.86 ± 0.07 % I.D./g and the “Biodistribution: Pancreas” value ([1]; 15 min p.i.) was 0.53 ± 0.05 % I.D./g. The “Biodistribution: Spleen” value ([1]; 15 min p.i.) was 0.6 ± 0.2 % I.D./g, the “Biodistribution: Stomach” value ([1]; 15 min p.i.) was 1.0 ± 0.5 % I.D./g and the Excretion ([1]; 15 min p.i.) was 62.7 ± 2.6 % I.D. For the same molecule, the “Biodistribution: Blood” value ([1]; 1 h p.i.) was 0.7 ± 0.4 % I.D./g, the “Biodistribution: Bone” value ([1]; 1 h p.i.) was 0.17 ± 0.09 % I.D./g and the “Biodistribution: Heart” value ([1]; 1 h p.i.) was 0.13 ± 0.08 % I.D./g. For the same molecule, the “Biodistribution: Intestine” value ([1]; 1 h p.i.) was 0.4 ± 0.2 % I.D./g, the “Biodistribution: Kidney” value ([1]; 1 h p.i.) was 2.2 ± 0.6 % I.D./g and the “Biodistribution: Liver” value ([1]; 1 h p.i.) was 0.3 ± 0.2 % I.D./g. For the same molecule, the “Biodistribution: Lung” value ([1]; 1 h p.i.) was 0.3 ± 0.2 % I.D./g, the “Biodistribution: Muscle” value ([1]; 1 h p.i.) was 0.2 ± 0.1 % I.D./g and the “Biodistribution: Pancreas” value ([1]; 1 h p.i.) was 0.12 ± 0.07 % I.D./g. For the same molecule, the “Biodistribution: Spleen” value ([1]; 1 h p.i.) was 0.11 ± 0.05 % I.D./g, the “Biodistribution: Stomach” value ([1]; 1 h p.i.) was 1.1 ± 0.8 % I.D./g and the Excretion ([1]; 1 h p.i.) was 87.1 ± 6.9 % I.D.

From article PMC8225959, “Clickable Radiocomplexes With Trivalent Radiometals for Cancer Theranostics: In vitro and in vivo Studies” (Frontiers in Medicine, 2021)
